Results: patent US20080206770A1, “SCREENING METHODS USED TO IDENTIFY COMPOUNDS THAT MODULATE SKIN STROMAL CELLS (FIBROBLASTS) ABILITY TO MODIFY FUNCTION OF EXTRACELLULAR MATRIX” (priority 2007, published 2008)
Blank lines part the entries; values can stand above or below the substance they belong to.

Legend:
[1] = system: skin fibroblasts from 30 individuals; test: Combined score of expression stimulation of 5 genes in fibroblast isolates (FIG. 1); format: cell-based, human; conditions: 24 hour treatment, atRA 10^-7 M, Matrixyl 1 μM, KappaElastin 1 μM
Experimental: Human dermal fibroblasts were grown in DMEM cell culture media containing 10% fetal bovine serum and 1% penicillin/streptomycin (Invitrogen). For all experiments, third-passage fibroblasts were used one day after reaching confluence. […] After 24 hour treatment RNA and protein was isolated and analyzed for the expression of components of ECM and transcriptional regulators.
Total RNA from various human tissues was purified using RNAwiz (Ambion, USA) and subjected to subsequent DNase I treatment using the DNA-Free kit (Ambion). Total RNA from cancer cells was purified by using 4PCRmini kit (Ambion). First-strand cDNAs were synthesized with Superscript III reverse transcriptase (Invitrogen, USA) and 5 μg of total RNA using oligo d(T) priming in a final reaction volume of 50 μL
The cDNA was amplified by PCR using the 2.5 U Hot-Firepol (Solis BioDyne, Estonia) and buffer Yellow (Naxo, Estonia). Reaction was performed in a 10 ul volume, using 0.5 ul cDNA as a template. Following primer sets were designed for this study:
The combined score of expression stimulation of 5 genes was calculated and blotted for each fibroblast isolate. […] This biological variation provides a good biological rational to use molecular diagnostics for matching cosmetics product and skin cells of specific individual (personalized cosmetics).

[2] = system: dermal fibroblasts isolated from 17 individuals; test: Real time RT-PCR of ECM components, nuclear hormone receptors and coregulators in fibroblasts from 17 individuals; format: cell-based, human; conditions: 24 hours
Experimental: Total RNA was extracted from cells using RNA aqueous kit (Ambion, USA). First-strand cDNAs were synthesized with Superscript III reverse transcriptase (Invitrogen, USA) and 1 μg of total RNA using oligo d(T) priming in a final reaction volume of 40 μL.
Levels of specific mRNAs were measured by real-time RT-PCR using Platinum SYBR Green qPCR SuperMix UDG (Invitrogen) according the protocol on the LightCycler 2.0 (Roche, US). The cycling program steps were: for one cycle 50° C. 2 min, for one cycle 95° C. 2 min and for 45 cycles: 95° C. 10 s, 60° C. 10 s, 72° C. 10 s. All samples were run in triplicates. Results were analyzed with the comparative Ct method (from Applied Biosystems manual; Livak and Schmittgen, 2001). Every sample was normalized for the housekeeping gene GAPDH. Transcript levels in the atRA and TGFb1 treated samples were compared to control samples.

[3] = fibroblasts from 17 individuals, 10 ng/ml

Substance: palmitoys pentapeptide-3 [Matrixyl]
- combined score of expression stimulation of 5 genes (COL1A1, COL2A1, elastin, proteoglycan, TIMP1) per fibroblast isolate [1]: 3 groups of fibroblasts that have different response

- expression of metalloproteinases and PPARγ ([2]; 10 ng/ml, 17 individuals): suppresses significantly
- gene expression of majority of collagens ([2]; 10 ng/ml, 17 individuals): strongly upregulated
- individual variation of collagen gene expression between individual fibroblasts ([2]; 10 ng/ml, 17 individuals): up to 13 fold
- variation of expression of PPARγ between different individuals ([2]; 10 ng/ml, 17 individuals): up to 17 fold
- effect on gene expression of different ECM genes compared with atRA ([2]; TGFβ1 10 ng/ml vs atRA 1 μM): noticeably stronger
- CBP expression in TGFbeta1 treatment compared to control, from-to between individuals [2, 3]: (from −2.24 to 2.29) fold
- COL1A1 expression in TGFbeta1 treatment compared to control, from-to between individuals [2, 3]: (from −1.11 to 7.75) fold
- COL1A2 expression in TGFbeta1 treatment compared to control, from-to between individuals [2, 3]: (from 1.14 to 9.58) fold
- COL3A1 expression in TGFbeta1 treatment compared to control, from-to between individuals [2, 3]: (from −1.75 to 6.82) fold
- COL4A1 expression in TGFbeta1 treatment compared to control, from-to between individuals [2, 3]: (from 2.52 to 16.22) fold
- COL5A1 expression in TGFbeta1 treatment compared to control, from-to between individuals [2, 3]: (from −1.61 to 6.08) fold
- COL5A2 expression in TGFbeta1 treatment compared to control, from-to between individuals [2, 3]: (from 1.3 to 3.42) fold
- CTGF expression in TGFbeta1 treatment compared to control, from-to between individuals [2, 3]: (from −1.8 to 11.00) fold
- ELN expression in TGFbeta1 treatment compared to control, from-to between individuals [2, 3]: (from −3.33 to 10.63) fold
- FN 1 transcr.v.1 expression in TGFbeta1 treatment compared to control, from-to between individuals [2, 3]: (from −3.23 to 3.75) fold
- Individual variation of gene expression in TGFbeta1 treatment: CBP [2, 3]: 4.53 fold
- Individual variation of gene expression in TGFbeta1 treatment: COL1A1 [2, 3]: 8.86 fold
- Individual variation of gene expression in TGFbeta1 treatment: COL1A2 [2, 3]: 8.44 fold
- Individual variation of gene expression in TGFbeta1 treatment: COL3A1 [2, 3]: 8.57 fold
- Individual variation of gene expression in TGFbeta1 treatment: COL4A1 [2, 3]: 13.7 fold
- Individual variation of gene expression in TGFbeta1 treatment: COL5A1 [2, 3]: 7.69 fold
- Individual variation of gene expression in TGFbeta1 treatment: COL5A2 [2, 3]: 2.12 fold
- Individual variation of gene expression in TGFbeta1 treatment: CTGF [2, 3]: 12.8 fold
- Individual variation of gene expression in TGFbeta1 treatment: ELN [2, 3]: 13.96 fold
- Individual variation of gene expression in TGFbeta1 treatment: FN 1 transcr.v.1 [2, 3]: 6.98 fold
- Individual variation of gene expression in TGFbeta1 treatment: MMP1, collagenase 1 [2, 3]: 7.02 fold
- Individual variation of gene expression in TGFbeta1 treatment: MMP2 gelatinase [2, 3]: 4.77 fold
- Individual variation of gene expression in TGFbeta1 treatment: MMP3 stromelysin [2, 3]: 5.8 fold
- Individual variation of gene expression in TGFbeta1 treatment: MMP7 [2, 3]: 32.8 fold
- Individual variation of gene expression in TGFbeta1 treatment: MMP10, stromelysin 2 [2, 3]: 45.93 fold
- Individual variation of gene expression in TGFbeta1 treatment: NCOA1 [2, 3]: 5.64 fold
- Individual variation of gene expression in TGFbeta1 treatment: NCOA2 [2, 3]: 1.58 fold
- Individual variation of gene expression in TGFbeta1 treatment: NCOA3 [2, 3]: 6.21 fold
- Individual variation of gene expression in TGFbeta1 treatment: NCOA5 [2, 3]: 4.56 fold
- Individual variation of gene expression in TGFbeta1 treatment: NCOA6 [2, 3]: 2.82 fold
- Individual variation of gene expression in TGFbeta1 treatment: NCOR1 [2, 3]: 7.31 fold
- Individual variation of gene expression in TGFbeta1 treatment: PPARG [2, 3]: 17.71 fold
- Individual variation of gene expression in TGFbeta1 treatment: TIMP1 [2, 3]: 5.73 fold
- MMP1, collagenase 1 expression in TGFbeta1 treatment compared to control, from-to between individuals [2, 3]: (from −5.05 to 1.97) fold
- MMP2 gelatinase expression in TGFbeta1 treatment compared to control, from-to between individuals [2, 3]: (from −2.51 to 2.26) fold
- MMP3 stromelysin expression in TGFbeta1 treatment compared to control, from-to between individuals [2, 3]: (from −3.22 to 2.58) fold
- MMP7 expression in TGFbeta1 treatment compared to control, from-to between individuals [2, 3]: (from −29.96 to 2.84) fold
- MMP10, stromelysin 2 expression in TGFbeta1 treatment compared to control, from-to between individuals [2, 3]: (from −5.0 to 40.93) fold
- NCOA1 expression in TGFbeta1 treatment compared to control, from-to between individuals [2, 3]: (from −2.76 to 2.88) fold
- NCOA2 expression in TGFbeta1 treatment compared to control, from-to between individuals [2, 3]: (from −2.54 to −0.96) fold
- NCOA3 expression in TGFbeta1 treatment compared to control, from-to between individuals [2, 3]: (from −4.81 to 1.4) fold
- NCOA5 expression in TGFbeta1 treatment compared to control, from-to between individuals [2, 3]: (from −3.13 to 1.43) fold
- NCOA6 expression in TGFbeta1 treatment compared to control, from-to between individuals [2, 3]: (from 1.64 to 1.18) fold
- NCOR1 expression in TGFbeta1 treatment compared to control, from-to between individuals [2, 3]: (from −2.54 to 4.77) fold
- PPARG expression in TGFbeta1 treatment compared to control, from-to between individuals [2, 3]: (from −16.51 to 1.2) fold
- TIMP1 expression in TGFbeta1 treatment compared to control, from-to between individuals [2, 3]: (from −2.45 to 3.28) fold
Substance: TGFbeta1: well-characterized profibrotic factor
